# Data as given in US9283222B2 (priority 2006, dated 2016).
# Target: Recombinant Human Poly(ADP-Ribose) Polymerase (PARP), PARP-1 (Homo sapiens (Human), UniProt P09874)
# Conditions: read-out: PARP-1 (Ki); Table 1; text calls the values EC50s
# Recombinant Human Poly(ADP-Ribose) Polymerase (PARP), PARP-1, sequence (P09874 whole entry): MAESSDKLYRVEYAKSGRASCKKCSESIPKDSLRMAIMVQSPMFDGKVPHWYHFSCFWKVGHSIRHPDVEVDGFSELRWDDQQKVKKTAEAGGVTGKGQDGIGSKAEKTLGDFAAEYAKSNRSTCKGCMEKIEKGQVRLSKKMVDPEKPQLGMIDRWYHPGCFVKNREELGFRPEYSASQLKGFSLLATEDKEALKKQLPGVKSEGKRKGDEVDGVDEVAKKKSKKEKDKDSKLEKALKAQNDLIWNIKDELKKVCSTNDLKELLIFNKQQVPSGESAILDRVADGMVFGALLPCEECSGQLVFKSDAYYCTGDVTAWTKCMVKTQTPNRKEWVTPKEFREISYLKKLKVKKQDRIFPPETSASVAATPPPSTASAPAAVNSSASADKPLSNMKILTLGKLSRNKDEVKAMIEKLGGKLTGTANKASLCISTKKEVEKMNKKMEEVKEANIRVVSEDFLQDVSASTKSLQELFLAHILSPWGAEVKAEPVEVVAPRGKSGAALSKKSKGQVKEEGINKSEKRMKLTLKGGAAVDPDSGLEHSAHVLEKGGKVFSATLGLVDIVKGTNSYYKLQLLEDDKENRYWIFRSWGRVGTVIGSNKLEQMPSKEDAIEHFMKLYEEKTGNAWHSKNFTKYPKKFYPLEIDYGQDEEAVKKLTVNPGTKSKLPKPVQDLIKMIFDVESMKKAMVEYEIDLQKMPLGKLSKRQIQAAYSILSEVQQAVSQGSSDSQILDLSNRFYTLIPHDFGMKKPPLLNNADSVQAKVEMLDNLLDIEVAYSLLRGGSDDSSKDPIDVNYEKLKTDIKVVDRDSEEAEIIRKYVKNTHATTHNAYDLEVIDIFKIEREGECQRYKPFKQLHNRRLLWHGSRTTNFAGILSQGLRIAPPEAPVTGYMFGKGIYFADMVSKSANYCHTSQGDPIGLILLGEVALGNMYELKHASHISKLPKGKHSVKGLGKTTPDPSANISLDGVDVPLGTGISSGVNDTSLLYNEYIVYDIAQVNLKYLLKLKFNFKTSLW
row,SMILES,Ki
1,"COc1ccc(OC)c(CCC(=O)Nc2cccc(Cc3n[nH]c(=O)c4c3CCCC4)c2)c1 [Example 144, 3-(2,5-dimethoxyphenyl)-N-(3-((4-oxo-3,4,5,6,7,8-hexahydrophthalazin-1-yl)methyl)phenyl)propanamide]",125 nM
2,"O=C(Nc1cccc(Cc2n[nH]c(=O)c3c2CCCC3)c1)C1(c2ccccc2)CC1 [Example 145, N-(3-((4-oxo-3,4,5,6,7,8-hexahydrophthalazin-1-yl)methyl)phenyl)-1-phenylcyclopropanecarboxamide]",57 nM
3,"CC[C@H](C(=O)Nc1cccc(Cc2n[nH]c(=O)c3c2CCCC3)c1)c1ccccc1 [Example 146, (2S)-N-(3-((4-oxo-3,4,5,6,7,8-hexahydrophthalazin-1-yl)methyl)phenyl)-2-phenylbutanamide]",678 nM
4,"O=C(CCCc1ccccc1)Nc1cccc(Cc2n[nH]c(=O)c3c2CCCC3)c1 [Example 147, N-(3-((4-oxo-3,4,5,6,7,8-hexahydrophthalazin-1-yl)methyl)phenyl)-4-phenylbutanamide]",41 nM
5,"Cc1cccc(OCC(=O)Nc2cccc(Cc3n[nH]c(=O)c4c3CCCC4)c2)c1 [Example 148, 2-(3-methylphenoxy)-N-(3-((4-oxo-3,4,5,6,7,8-hexahydrophthalazin-1-yl)methyl)phenyl)acetamide]",74 nM
6,"Cc1ccccc1OCC(=O)Nc1cccc(Cc2n[nH]c(=O)c3c2CCCC3)c1 [Example 149, 2-(2-methylphenoxy)-N-(3-((4-oxo-3,4,5,6,7,8-hexahydrophthalazin-1-yl)methyl)phenyl)acetamide]",22 nM
7,"Cc1ccc(OCC(=O)Nc2cccc(Cc3n[nH]c(=O)c4c3CCCC4)c2)cc1 [Example 150, 2-(4-methylphenoxy)-N-(3-((4-oxo-3,4,5,6,7,8-hexahydrophthalazin-1-yl)methyl)phenyl)acetamide]",16 nM
8,"CO[C@@H](C(=O)Nc1cccc(Cc2n[nH]c(=O)c3c2CCCC3)c1)c1ccccc1 [Example 151, (2R)-2-methoxy-N-(3-((4-oxo-3,4,5,6,7,8-hexahydrophthalazin-1-yl)methyl)phenyl)-2-phenylacetamide]",531 nM
9,"CO[C@H](C(=O)Nc1cccc(Cc2n[nH]c(=O)c3c2CCCC3)c1)c1ccccc1 [Example 152, (2S)-2-methoxy-N-(3-((4-oxo-3,4,5,6,7,8-hexahydrophthalazin-1-yl)methyl)phenyl)-2-phenylacetamide]",741 nM
10,"O=C(CCOc1ccccc1)Nc1cccc(Cc2n[nH]c(=O)c3c2CCCC3)c1 [Example 153, N-(3-((4-oxo-3,4,5,6,7,8-hexahydrophthalazin-1-yl)methyl)phenyl)-3-phenoxypropanamide]",6 nM
11,"O=C(CCCc1cccs1)Nc1cccc(Cc2n[nH]c(=O)c3c2CCCC3)c1 [Example 154, N-(3-((4-oxo-3,4,5,6,7,8-hexahydrophthalazin-1-yl)methyl)phenyl)-4-thien-2-ylbutanamide]",56 nM
12,"CC(=O)N1CCC(C(=O)Nc2cccc(Cc3n[nH]c(=O)c4c3CCCC4)c2)CC1 [Example 155, 1-acetyl-N-(3-((4-oxo-3,4,5,6,7,8-hexahydrophthalazin-1-yl)methyl)phenyl)piperidine-4-carboxamide]",126 nM
13,"O=C(Cc1cc(F)cc(F)c1)Nc1cccc(Cc2n[nH]c(=O)c3c2CCCC3)c1 [Example 156, 2-(3,5-difluorophenyl)-N-(3-((4-oxo-3,4,5,6,7,8-hexahydrophthalazin-1-yl)methyl)phenyl)acetamide]",25 nM
14,CC(=O)N[C@@H](CC(C)C)C(=O)Nc1cccc(Cc2n[nH]c(=O)c3c2CCCC3)c1 [Example 157],124 nM
15,CCCN(CCC)[C@@H](C)C(=O)Nc1cccc(Cc2n[nH]c(=O)c3c2CCCC3)c1 [Example 158],1590 nM
16,"O=C(CNC(=O)c1ccccc1)Nc1cccc(Cc2n[nH]c(=O)c3c2CCCC3)c1 [Example 160, N-(2-oxo-2-(3-((4-oxo-3,4,5,6,7,8-hexahydrophthalazin-1-yl)methyl)phenylamino)ethyl)benzamide]",11 nM
17,"COc1cccc(CCC(=O)Nc2cccc(Cc3n[nH]c(=O)c4c3CCCC4)c2)c1 [Example 161, 3-(3-methoxyphenyl)-N-(3-((4-oxo-3,4,5,6,7,8-hexahydrophthalazin-1-yl)methyl)phenyl)propanamide]",64 nM
18,"COc1ccc(CCC(=O)Nc2cccc(Cc3n[nH]c(=O)c4c3CCCC4)c2)cc1 [Example 162, 3-(4-methoxyphenyl)-N-(3-((4-oxo-3,4,5,6,7,8-hexahydrophthalazin-1-yl)methyl)phenyl)propanamide]",51 nM
19,"Cc1ccc(OCC(=O)Nc2cccc(Cc3n[nH]c(=O)c4c3CCCC4)c2)cc1C [Example 163, 2-(3,4-dimethylphenoxy)-N-(3-((4-oxo-3,4,5,6,7,8-hexahydrophthalazin-1-yl)methyl)phenyl)acetamide]",35 nM
20,"O=C(Nc1cccc(Cc2n[nH]c(=O)c3c2CCCC3)c1)[C@H](O)CCc1ccccc1 [Example 164, (2R)-2-hydroxy-N-(3-((4-oxo-3,4,5,6,7,8-hexahydrophthalazin-1-yl)methyl)phenyl)-4-phenylbutanamide]",28 nM

row,SMILES,Ki
1,"O=C(CCCOc1ccccc1)Nc1cccc(Cc2n[nH]c(=O)c3c2CCCC3)c1 [Example 165, N-(3-((4-oxo-3,4,5,6,7,8-hexahydrophthalazin-1-yl)methyl)phenyl)-4-phenoxybutanamide]",14 nM
2,"O=C(CCC(=O)c1cccs1)Nc1cccc(Cc2n[nH]c(=O)c3c2CCCC3)c1 [Example 166, 4-oxo-N-(3-((4-oxo-3,4,5,6,7,8-hexahydrophthalazin-1-yl)methyl)phenyl)-4-thien-2-ylbutanamide]",5 nM
3,"Cc1ccnc(SCC(=O)Nc2cccc(Cc3n[nH]c(=O)c4c3CCCC4)c2)n1 [Example 167, 2-((4-methylpyrimidin-2-yl)thio)-N-(3-((4-oxo-3,4,5,6,7,8-hexahydrophthalazin-1-yl)methyl)phenyl)acetamide]",56 nM
4,"O=C(CCc1ccccc1Cl)Nc1cccc(Cc2n[nH]c(=O)c3c2CCCC3)c1 [Example 168, 3-(2-chlorophenyl)-N-(3-((4-oxo-3,4,5,6,7,8-hexahydrophthalazin-1-yl)methyl)phenyl)propanamide]",127 nM
5,"O=C(CCc1ccc(Cl)cc1)Nc1cccc(Cc2n[nH]c(=O)c3c2CCCC3)c1 [Example 169, 3-(4-chlorophenyl)-N-(3-((4-oxo-3,4,5,6,7,8-hexahydrophthalazin-1-yl)methyl)phenyl)propanamide]",99 nM
6,"CCC(C)C(C(=O)Nc1cccc(Cc2n[nH]c(=O)c3c2CCCC3)c1)c1ccccc1 (stereo not drawn) [Example 170, 3-methyl-N-(3-((4-oxo-3,4,5,6,7,8-hexahydrophthalazin-1-yl)methyl)phenyl)-2-phenylpentanamide]",1700 nM
7,"Cc1cc(Cl)ccc1OCC(=O)Nc1cccc(Cc2n[nH]c(=O)c3c2CCCC3)c1 [Example 171, 2-(4-chloro-2-methylphenoxy)-N-(3-((4-oxo-3,4,5,6,7,8-hexahydrophthalazin-1-yl)methyl)phenyl)acetamide]",56 nM
8,"O=C(CCCC(=O)Nc1cccc(Cc2n[nH]c(=O)c3c2CCCC3)c1)Nc1ccccc1 [Example 172, N-(3-((4-oxo-3,4,5,6,7,8-hexahydrophthalazin-1-yl)methyl)phenyl)-N′-phenylpentanediamide]",3 nM
9,"COc1ccc(C(=O)CCC(=O)Nc2cccc(Cc3n[nH]c(=O)c4c3CCCC4)c2)cc1 [Example 173, 4-(4-methoxyphenyl)-4-oxo-N-(3-((4-oxo-3,4,5,6,7,8-hexahydrophthalazin-1-yl)methyl)phenyl)butanamide]",2 nM
10,"O=C(Nc1cccc(Cc2n[nH]c(=O)c3c2CCCC3)c1)C(c1ccccc1)c1ccccc1 [Example 174, N-(3-((4-oxo-3,4,5,6,7,8-hexahydrophthalazin-1-yl)methyl)phenyl)-2,2-diphenylacetamide]",655 nM
11,"O=C(CCS(=O)(=O)c1ccccc1)Nc1cccc(Cc2n[nH]c(=O)c3c2CCCC3)c1 [Example 175, N-(3-((4-oxo-3,4,5,6,7,8-hexahydrophthalazin-1-yl)methyl)phenyl)-3-(phenylsulfonyl)propanamide]",21 nM
12,"O=C(Cc1cccc(Oc2ccccc2)c1)Nc1cccc(Cc2n[nH]c(=O)c3c2CCCC3)c1 [Example 176, N-(3-((4-oxo-3,4,5,6,7,8-hexahydrophthalazin-1-yl)methyl)phenyl)-2-(3-phenoxyphenyl)acetamide]",43 nM
13,"CCc1ccc(C(=O)Nc2cccc(Cc3n[nH]c(=O)c4c3CCCC4)c2)cc1 [Example 177, 4-ethyl-N-(3-((4-oxo-3,4,5,6,7,8-hexahydrophthalazin-1-yl)methyl)phenyl)benzamide]",156 nM
14,"Cc1c(F)cccc1C(=O)Nc1cccc(Cc2n[nH]c(=O)c3c2CCCC3)c1 [Example 178, 3-fluoro-2-methyl-N-(3-((4-oxo-3,4,5,6,7,8-hexahydrophthalazin-1-yl)methyl)phenyl)benzamide]",462 nM
15,"Cc1ccc(F)cc1C(=O)Nc1cccc(Cc2n[nH]c(=O)c3c2CCCC3)c1 [Example 179, 5-fluoro-2-methyl-N-(3-((4-oxo-3,4,5,6,7,8-hexahydrophthalazin-1-yl)methyl)phenyl)benzamide]",238 nM
16,"Cc1ccc(C(=O)Nc2cccc(Cc3n[nH]c(=O)c4c3CCCC4)c2)cc1F [Example 180, 3-fluoro-4-methyl-N-(3-((4-oxo-3,4,5,6,7,8-hexahydrophthalazin-1-yl)methyl)phenyl)benzamide]",159 nM
17,"O=C(Nc1cccc(Cc2n[nH]c(=O)c3c2CCCC3)c1)c1cccc(F)c1F [Example 181, 2,3-difluoro-N-(3-((4-oxo-3,4,5,6,7,8-hexahydrophthalazin-1-yl)methyl)phenyl)benzamide]",212 nM
18,"O=C(Nc1cccc(Cc2n[nH]c(=O)c3c2CCCC3)c1)c1ccc(F)cc1F [Example 182, 2,4-difluoro-N-(3-((4-oxo-3,4,5,6,7,8-hexahydrophthalazin-1-yl)methyl)phenyl)benzamide]",292 nM
19,"O=C(Nc1cccc(Cc2n[nH]c(=O)c3c2CCCC3)c1)c1cc(F)ccc1F [Example 183, 2,5-difluoro-N-(3-((4-oxo-3,4,5,6,7,8-hexahydrophthalazin-1-yl)methyl)phenyl)benzamide]",166 nM
